Consider 65 compounds from patent US20130184222A1, “[…] ACTIVE COMPOSITIONS AND THEIR METHODS OF USE” (AGIOS PHARMACEUTICALS, INC, priority 2010, published 2013).

The target in the first experiment is IDH1 R132H (Homo sapiens, UniProt O75874, R132H). As to the kind of experiment: In vitro assay for IDH1 R132H inhibitors (NADPH/aKG, resazurin detection). The following applies: Table 4A; 0.2 μg/ml IDH1 R132H, 50 minutes at room temperature; read-out: IC50 (uM), IDH1 R132H Inhibition. It is filed as biochemical. The protocol: Assays were conducted in a volume of 76 μl assay buffer (150 mM NaCl, 10 mM MgCl2, 20 mM Tris pH 7.5, 0.03% bovine serum albumin) as follows in a standard 384-well plate: To 25 ul of substrate mix (8 uM NADPH, 2 mM aKG), 1 μl of test compound was added in DMSO. The plate was centrifuged briefly, and then 25 μl of enzyme mix was added (0.2 μg/ml IDH1 R132H) followed by a brief centrifugation and shake at 100 RPM. The reaction was incubated for 50 minutes at room temperature, then 25 μl of detection mix (30 μM resazurin, […]) was added and the mixture further incubated for 5 minutes at room temperature. The conversion of resazurin to resorufin was detected by fluorescent spectroscopy at Ex544 Em590 c/o 590.
IDH1 R132H, sequence (O75874 whole entry R132H): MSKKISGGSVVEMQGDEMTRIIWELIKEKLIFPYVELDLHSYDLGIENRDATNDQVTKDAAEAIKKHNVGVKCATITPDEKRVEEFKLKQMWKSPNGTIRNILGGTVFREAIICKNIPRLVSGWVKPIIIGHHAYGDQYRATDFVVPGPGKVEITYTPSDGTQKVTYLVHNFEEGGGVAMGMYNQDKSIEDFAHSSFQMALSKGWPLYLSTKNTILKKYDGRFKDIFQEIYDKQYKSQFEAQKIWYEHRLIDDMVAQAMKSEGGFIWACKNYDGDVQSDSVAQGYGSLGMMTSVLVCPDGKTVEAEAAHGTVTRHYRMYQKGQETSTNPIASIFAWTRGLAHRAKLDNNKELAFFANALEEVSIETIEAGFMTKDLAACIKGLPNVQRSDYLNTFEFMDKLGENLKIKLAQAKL
The compounds of Formula I set forth in Table 1 and the compounds set forth in Table 2 were tested in this assay and the results set forth below in Table 4A and 4B.
(Alamar Blue is a resazurin reagent that responds to reducing activity.)
As for `Cc1ccccc1C(C(=O)NC1CCCCC1)N(C(=O)Cc1cccs1)C(C)(C)C` (centres unmarked) [Compound 69], the IC50 was no less than 100 µM. `Cc1ccccc1C(C(=O)NC1CCCCC1)N(C(=O)Cc1cccs1)C1CCCC1` (centres unmarked) [Compound 70]: the IC50 lay in the range of 1 to 10 µM. As for `Cc1ccccc1C(C(=O)NC1CCCCC1)N(Cc1ccccc1)C(=O)Cc1cccs1` (centres unmarked) [Compound 71], the IC50 was 1 to 10 µM. In the case of `Cc1ccccc1C(C(=O)NC1CCCC1)N(C(=O)c1ccccn1)c1cccc(F)c1` (centres unmarked) [Compound 72], the concentration for half-maximal inhibition (IC50) lay within 1 to 10 µM. `Cc1ccccc1C(C(=O)NC1CCCCC1)N(C(=O)Cc1cccs1)c1ccc(Br)c(Cl)c1` (centres unmarked) [Compound 73]: the IC50 lay in the range of 0.1 to 1 µM. For `O=C(Cc1cccs1)N(c1cccc(F)c1)C1(C(=O)NC2CCCC2)CCCCCC1` [Compound 74], the IC50 was 1 to 10 µM. Take `Cc1ccccc1C(C(=O)NC1CCCC1)N(C(=O)CCl)c1ccccc1F` (centres unmarked) [Compound 75]: the IC50 is 1 to 10 µM.

On to `O=C(NC1CCCCC1)C(c1ccncc1)N(C(=O)Cc1cccs1)c1cccc(F)c1` (centres unmarked) [Compound 76], for which the IC50 is 1 to 10 µM. For the compound `COc1ccc(C(C(=O)NC2CCCCC2)N(C(=O)Cc2cccs2)c2cccc(F)c2)cc1` (centres unmarked) [Compound 77], the IC50 was no less than 100 µM. `Cc1ccc(C(C(=O)NC2CCCCC2)N(C(=O)Cc2cccs2)c2cccc(F)c2)cc1` (centres unmarked) [Compound 78]: the IC50 is 0.1 to 1 µM. In the case of `O=C(NC1CCCCC1)C(c1ccc(Cl)cc1)N(C(=O)Cc1cccs1)c1cccc(F)c1` (centres unmarked) [Compound 79], the IC50 lay in the range of 0.1 to 1 µM.

Take `Cc1ccccc1C(C(=O)NC1CCCCCC1)N(C(=O)Cc1cccs1)c1cccc(F)c1` (centres unmarked) [Compound 80]: the IC50 was no more than 0.1 µM.

Take `O=C(NC1CCCCC1)C(c1ccccn1)N(C(=O)Cc1cccs1)c1cccc(F)c1` (centres unmarked) [Compound 81]: the IC50 lay within 1 to 10 µM. For the compound `O=C(NC1CCCCC1)C(Cc1ccccc1)N(C(=O)Cc1cccs1)c1cccc(F)c1` (centres unmarked) [Compound 82], the IC50 fell in the range of 1 to 10 µM.

Consider `O=C(NC1CCCCC1)C(c1ccc(-n2ccnc2)cc1)N(C(=O)Cc1cccs1)c1cccc(F)c1` (centres unmarked) [Compound 83], for which the IC50 fell in the range of 10 to 100 µM. Take `O=C(NC1CCCCC1)C(c1ccc(C(F)(F)F)cc1)N(C(=O)Cc1cccs1)c1cccc(F)c1` (centres unmarked) [Compound 84]: the IC50 was no less than 100 µM. Same read-out and setting: for `COCOc1ccc(C(C(=O)NC2CCCCC2)N(C(=O)Cc2cccs2)c2cccc(F)c2)cc1` (centres unmarked) [Compound 85] the value was 1 to 10 µM; for `CCCCc1ccc(C(C(=O)NC2CCCCC2)N(C(=O)Cc2cccs2)c2cccc(F)c2)cc1` (centres unmarked) [Compound 86], no less than 100 µM. Turning to `O=C(NC1CCCCC1)C(c1ccc(Br)o1)N(C(=O)Cc1cccs1)c1cccc(F)c1` (centres unmarked) [Compound 87], the IC50 lay in the range of 0.1 to 1 µM. In the case of `CC(C)Cc1ccc(C(C(=O)NC2CCCCC2)N(C(=O)Cc2cccs2)c2cccc(F)c2)cc1` (centres unmarked) [Compound 88], the IC50 was no less than 100 µM. `Cc1cccc(C(C(=O)NC2CCCCC2)N(C(=O)Cc2cccs2)c2cccc(F)c2)c1` (centres unmarked) [Compound 89]: the IC50 lay within 0.1 to 1 µM.

Take `O=C(NC1CCCCC1)C(c1cccnc1)N(C(=O)Cc1cccs1)c1cccc(F)c1` (centres unmarked) [Compound 90]: the half-maximal inhibitory concentration (IC50) is 1 to 10 µM.

Consider `O=C(NC1CCCCC1)C(c1cccc(O)c1)N(C(=O)Cc1cccs1)c1cccc(F)c1` (centres unmarked) [Compound 91], for which the IC50 fell in the range of 0.1 to 1 µM. In the case of `O=C(NC1CCCCC1)C(c1ccc(O)cc1)N(C(=O)Cc1cccs1)c1cccc(F)c1` (centres unmarked) [Compound 92], the IC50 is 0.1 to 1 µM. Turning to `CCCCCCCCOc1ccc(C(C(=O)NC2CCCCC2)N(C(=O)Cc2cccs2)c2cccc(F)c2)cc1` (centres unmarked) [Compound 93], the IC50 is 0.1 to 1 µM. As to `O=C(NC1CCCCC1)C(c1cccs1)N(C(=O)Cc1cccs1)c1cccc(F)c1` (centres unmarked) [Compound 94], the IC50 was in the range of 0.1 to 1 µM. With `CC(=O)c1cccc(C(C(=O)NC2CCCCC2)N(C(=O)Cc2cccs2)c2cccc(F)c2)c1` (centres unmarked) [Compound 95], the IC50 was no less than 100 µM. On the same count and under the same terms, for `O=C(NC1CCCCC1)C(c1cccc(C(F)(F)F)c1)N(C(=O)Cc1cccs1)c1cccc(F)c1` (centres unmarked) [Compound 96] the value was 1 to 10 µM; for `Cc1ccccc1C(C(=O)NC1CCCCC1)N(C(=O)Cc1cccs1)c1cccc(Cl)c1Cl` (centres unmarked) [Compound 97], 1 to 10 µM; for `Cc1ccccc1C(C(=O)NC1CCCCC1)N(C(=O)Cc1cccs1)c1ccccc1Br` (centres unmarked) [Compound 98], 0.1 to 1 µM. Take `Cc1cccc(N(C(=O)Cc2cccs2)C(C(=O)NC2CCCCC2)c2ccccc2C)c1` (centres unmarked) [Compound 99]: the IC50 was no more than 0.1 µM. `O=C(NC1CCCCC1)C(c1ccccc1)N(C(=O)Cc1cccs1)c1ccccc1` (centres unmarked) [Compound 100]: the IC50 fell in the range of 0.1 to 1 µM. With `Cc1ccccc1C(C(=O)NC1CCCCC1)N(C(=O)Cc1cccs1)c1ccc2c(c1)OCO2` (centres unmarked) [Compound 101], the IC50 lay in the range of 0.1 to 1 µM.

The same experiment, now with this note: Table 4B; 0.2 μg/ml IDH1 R132H, 50 minutes at room temperature; read-out: IC50, IDH1 R132H Inhibition.
For `O=C(NC1CCCCC1)C(c1cc(F)cc(Cl)c1)N(C(=O)Cc1cccs1)c1cccc(F)c1` (centres unmarked) [Compound 102], the IC50 lay in the range of 0.1 to 1 µM. On to `O=C(NC1CCCCC1)C(c1cc(Cl)ccc1Cl)N(C(=O)Cc1cccs1)c1cccc(F)c1` (centres unmarked) [Compound 103], for which the IC50 fell in the range of 0.1 to 1 µM.

In the case of `O=C(NC1CCCCC1)C(c1ccccc1Br)N(C(=O)Cc1cccs1)c1cccc(F)c1` (centres unmarked) [Compound 104], the IC50 was no more than 0.1 µM. In the case of `O=C(NC1CCCCC1)C(c1c(F)ccc(F)c1Cl)N(C(=O)Cc1cccs1)c1cccc(F)c1` (centres unmarked) [Compound 105], the IC50 lay within 0.1 to 1 µM. The same measure, in the same setting: under `O=C(NC1CCCCC1)C(c1cc(F)c(F)cc1F)N(C(=O)Cc1cccs1)c1cccc(F)c1` (centres unmarked) [Compound 106] stands 0.1 to 1 µM. The same measure, in the same setting: for `O=C(NC1CCCCC1)C(c1cccc(Cl)c1)N(C(=O)Cc1cccs1)c1cccc(F)c1` (centres unmarked) [Compound 107] the value was 0.1 to 1 µM; for `O=C(NC1CCCCC1)C(c1ccccc1C(F)(F)F)N(C(=O)Cc1cccs1)c1cccc(F)c1` (centres unmarked) [Compound 108], 0.1 to 1 µM. For `Cc1ccccc1C(C(=O)NC(C)(C)C)N(C(=O)Cc1cccs1)c1cccc(F)c1` (centres unmarked) [Compound 109], the IC50 was 0.1 to 1 µM.

For the compound `Cc1ccccc1NC(=O)C(c1ccccc1C)N(C(=O)Cc1cccs1)c1cccc(F)c1` (centres unmarked) [Compound 110], the concentration for half-maximal inhibition (IC50) is 0.1 to 1 µM. For the compound `Cc1ccccc1C(C(=O)NC1CCCCC1)N(C(=O)Cc1cccs1)c1cccnc1` (centres unmarked) [Compound 111], the IC50 lay in the range of 0.1 to 1 µM.

As to `CCC(=O)Nc1cccc(N(C(=O)Cc2cccs2)C(C(=O)NC2CCCCC2)c2ccccc2C)c1` (centres unmarked) [Compound 112], the IC50 lay within 0.1 to 1 µM. Regarding `Cc1ccccc1C(C(=O)NC1CCCCC1)N(C(=O)Cc1cccs1)C1CCCCC1` (centres unmarked) [Compound 113], the IC50 was 0.1 to 1 µM. For `O=C(NC1CCCCC1)C(c1c(Br)ccc(Br)c1F)N(C(=O)Cc1cccs1)c1cccc(F)c1` (centres unmarked) [Compound 114], the IC50 lay within 0.1 to 1 µM.

Take `O=C(NC1CCCCC1)C(c1cccc(Br)c1)N(C(=O)Cc1cccs1)c1cccc(F)c1` (centres unmarked) [Compound 115]: the IC50 was in the range of 0.1 to 1 µM. Regarding `COc1ccccc1C(C(=O)NC1CCCCC1)N(C(=O)Cc1cccs1)c1cccc(F)c1` (centres unmarked) [Compound 116], the IC50 was in the range of 0.1 to 1 µM. On to `Cc1ccc(N(C(=O)Cc2cccs2)C(C(=O)NC2CCCCC2)c2ccccc2C)cc1Cl` (centres unmarked) [Compound 117], for which the IC50 lay in the range of 0.1 to 1 µM. As for `Cc1ccccc1C(C(=O)NC1CCCCC1)N(C(=O)CCl)c1cccc(F)c1` (centres unmarked) [Compound 118], the IC50 fell in the range of 0.1 to 1 µM. Consider `Cc1ccccc1C(C(=O)NC1CCCCC1)N(C(=O)CNC1CC1)c1cccc(F)c1` (centres unmarked) [Compound 119], for which the IC50 lay within 0.1 to 1 µM. On to `Cc1ccccc1C(C(=O)NC1CCCCC1)N(C(=O)CNC1CCC1)c1cccc(F)c1` (centres unmarked) [Compound 120], for which the IC50 fell in the range of 0.1 to 1 µM. Regarding `Cc1ccccc1C(C(=O)NC1CCCCC1)N(C(=O)CNC1CCCC1)c1cccc(F)c1` (centres unmarked) [Compound 121], the IC50 was 0.1 to 1 µM. As for `Cc1ccccc1C(C(=O)NC1CCCCC1)N(C(=O)Cc1cccs1)c1cccc(C(F)(F)F)c1` (centres unmarked) [Compound 122], the IC50 is 0.1 to 1 µM. For `Cc1ccccc1C(C(=O)NC1CCCCC1)N(C(=O)Cc1cccs1)c1cccc(N2CCOCC2)c1` (centres unmarked) [Compound 123], the IC50 lay within 0.1 to 1 µM. With `COc1cccc(N(C(=O)Cc2cccs2)C(C(=O)NC2CCCCC2)c2ccccc2C)c1` (centres unmarked) [Compound 124], the IC50 was 0.1 to 1 µM. On to `Cc1ccccc1C(C(=O)NC1CCCCC1)N(C(=O)C1COc2ccccc2O1)c1cccc(F)c1` (centres unmarked) [Compound 125], for which the IC50 was in the range of 0.1 to 1 µM. As to `Cc1ccc(F)c(C(C(=O)NC2CCCCC2)N(C(=O)Cc2cccs2)c2cccc(F)c2)c1` (centres unmarked) [Compound 127], the IC50 was 0.1 to 1 µM. Regarding `COc1ccc(F)c(C(C(=O)NC2CCCCC2)N(C(=O)Cc2cccs2)c2cccc(F)c2)c1` (centres unmarked) [Compound 128], the IC50 is 0.1 to 1 µM. In the case of `O=C(NC1CCCCC1)C(c1cc(F)ccc1Br)N(C(=O)Cc1cccs1)c1cccc(F)c1` (centres unmarked) [Compound 129], the IC50 was 0.1 to 1 µM. For `Cc1cccc(C)c1C(C(=O)NC1CCCCC1)N(C(=O)Cc1cccs1)c1cccc(F)c1` (centres unmarked) [Compound 130], the half-maximal inhibitory concentration (IC50) was 0.1 to 1 µM.

Consider `CC(=O)c1cccc(N(C(=O)Cc2cccs2)C(C(=O)NC2CCCCC2)c2ccccc2C)c1` (centres unmarked) [Compound 131], for which the IC50 fell in the range of 0.1 to 1 µM. `Cc1ccccc1C(C(=O)NC1CCCCC1)N(C(=O)c1ccc2c(c1)OCO2)c1cccc(F)c1` (centres unmarked) [Compound 132]: the IC50 was in the range of 0.1 to 1 µM. With `Cc1ccccc1C(C(=O)NC1CCCCC1)N(C(=O)CNc1cccc(F)c1)c1cccc(F)c1` (centres unmarked) [Compound 133], the IC50 lay in the range of 0.1 to 1 µM. Still for that read-out and setting: under `Cc1ccccc1C(C(=O)NC1CCCCC1)N(C(=O)COc1ccccc1)c1cccc(F)c1` (centres unmarked) [Compound 136] stands 0.1 to 1 µM.

One may read the IC50 as the concentration that inhibits the measured activity by half.
